Experimental findings from US12065421B2, “Inhibitors of oplophorus luciferase-derived bioluminescent complexes” (priority 2018, dated 2024) are described below.

Molecules are shown by their SMILES.

One data set concerns the target NanoLuc (Oplophorus gracilirostris, UniProt Q9GV45, A31E/A60N/A81I/F95D/I117V/K70R/L54V/L99Q/M102K/N193R/P142E/Q151K/Q38R/Q45L/V71I/Y165I). Kind of data set: NANOLUC® (Nluc) inhibitory activity (FIG. 2). Type of data set: biochemical. The following applies: Nluc 2 ng/ml in NanoGlo® buffer, 100 μM furimazine. As to the method:
FIG. 2 compares the NANOLUC® (Nluc) inhibitory activity of exemplary compounds of the present invention to PBI-6096, a known Nluc inhibitor. Inhibitors were diluted into CO2-independent media with 10% FBS. Nluc was diluted to 2 ng/ml into NanoGlo® buffer with 100 μM furimazine. Serial dilutions of the inhibitors were added to the NanoLuc/furimazine/NanoGlo® solution, and samples were immediately analyzed using a GloMax®-Multi+ Plate Reader.

For data set [1], the system named is NanoBiT® HiBit/LgBit bioluminescent complex. Kind of data set: Inhibition of bioluminescent complex in lysed HEK293 cells expressing HiBiT fusion plus purified LgBiT (FIG. 3A). The following applies: HEK293 cells lysed with digitonin, purified LgBiT added, 2 hours, 10 μM furimazine. Type of data set: cell-based, Oplophorus gracilirostris. As to the method:
FIGS. 3A-3B show the inhibition of bioluminescent complexes in cells. In FIG. 3A, HEK293 cells were transfected with DNA encoding an intracellular NanoBiT® HiBiT fusion protein, plated at 20,000 cells/100 μL growth medium, and incubated for 24 hours. Following 24 hours of expression, cells were lysed with 50 ug/mL (final) of digitonin in OptiMEM and treated with purified NanoBiT® LgBiT non-luminescent polypeptide and serial dilutions of HL-0005. After 2 hours of incubation at room temperature, furimazine was added (10 μM final concentration), and luminescence was measured on a GloMax®-Multi+ Plate Reader.
A general note: With HiBiT, luminescence reflects the tagged protein that the partner subunit can reach.

Data set [2] has the same test system. Type of data set: cell-based, Oplophorus gracilirostris. The following applies: HEK293 cells, optionally lysed with 50 ug/mL digitonin. As to the method:
In FIG. 3B, HEK293 cells were transfected with DNA encoding an intracellular NanoBiT® HiBiT fusion protein and DNA encoding an intracellular NanoBiT® LgBiT fusion protein such that the fusion proteins were co-expressed within the cell. Transfected cells were plated at 20,000 cells/100 μL growth medium and incubated for 24 hours. Following 24 hours of expression, cells were optionally lysed with 50 ug/mL of digitonin in OptiMEM and treated with serial dilutions of HL-0005. After 2 hours of incubation at room temperature, furimazine was added (10 μM final concentration), and luminescence was measured on a GloMax® Multi+ Plate Reader.

NanoLuc, sequence (Q9GV45 28-196 with tags or gaps with the stated changes limits assumed): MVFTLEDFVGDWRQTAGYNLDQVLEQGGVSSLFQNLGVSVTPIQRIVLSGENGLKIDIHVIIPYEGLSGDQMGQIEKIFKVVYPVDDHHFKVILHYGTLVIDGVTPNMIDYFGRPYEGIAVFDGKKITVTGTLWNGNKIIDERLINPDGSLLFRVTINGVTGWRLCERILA

With `N#Cc1c(NC(=O)c2ccccc2NS(=O)(=O)c2ccccc2)sc2c1CCC2` [HL-0010, N-(3-cyano-5,6-dihydro-4H-cyclopenta[b]thiophen-2-yl)-2-(phenylsulfonamido)benzamide], the “inhibition against NanoLuc” value on NanoLuc is reported as “do not show any appreciable inhibition”.

As for `Cc1ccc(S(=O)(=O)Nc2ccccc2C(=O)Nc2sc3c(c2C#N)CCCC3)cc1` [JRW-1004, N-(3-cyano-4,5,6,7-tetrahydrobenzo[b]thiophen-2-yl)-2-((4-methylphenyl)sulfonamido)benzamide], the “inhibition against NanoLuc” value at NanoLuc is “do not show any appreciable inhibition”.

For the compound `Cc1ccc(S(=O)(=O)Nc2ccccc2C(=O)Nc2cc3ccccc3s2)cc1` [HL-0005, N-(benzo[b]thiophen-2-yl)-2-((4-methylphenyl)sulfonamido)benzamide], the “inhibition of HiBit/LgBit bioluminescent complex in a cellular context” value in data set [1] was “inhibition”. Further, in data set [2], the “cell permeability (IC50 values in lytic and non-lytic conditions compared)” value is reported as “mostly cell permeable”. At NanoLuc, the “inhibition against NanoLuc” value was “do not show any appreciable inhibition”.
